Each structure is given as a SMILES string. Read-outs that look alike come from different tables or passages of the source.

The experiment concerns PTX-22 cells. Description: Antiproliferative assay (MTS). It is filed as cell-based, human. How it is done:
A549, a human non-small cell lung carcinoma and MDA-MB-435, a human breast carcinoma, used in this study are obtained from the American Type Culture Collection (ATCC, Rockville, Md., USA). MDA-MB-435 cells are maintained in MEM containing 10% FBS, 1% sodium pyruvate, 1% MEM non-essential amino acids, and 15 mM HEPES (pH=7.4). A549 cells are maintained in RPMI 1640 containing 10% FBS. 1A9, a single-cell clone of the human ovarian carcinoma cell line A2780 and PTX22, the paclitaxel-resistant subline, used in this stdy are obtained from M. Wartman (Novartis Pharmauticals). 1A9 cells and PTX22 cells are maintained in RPMI 1640 supplemented with 10% FBS. PTX22 maintenance media also contained 15 ng/mL paclitaxel and 5 μg/mL verapamil. Drug is removed from the media for 5-7 days before use in an experiment. All maintenance media contained 100 units/mL penicillin and 100 μg/mL streptomycin.
Cell lines are trypsinized and counted using a Coulter counter. Cells were plated in 96 well plates (190 μL/well) at the following densities: 1,000 cells/well for A549 and 3,000 cells/well for MDA-MB-435. The number of cells plated results in cell densities of 75-90% confluence by the time of harvest. Plates are seeded on day 0. On day 1 test compounds are added to triplicate wells in a final volume of 10 μL media. Initial cell density for each cell line is measured on day 1 by adding 10 μL MTS mixture (see below), incubating for 4 h and recording absorbance at 490 nm (A490). Two or three days after test compound addition, 10 μL/well of MTS mixture is added to the test plates and A490 was read 4 h later. A490 values for wells containing cells are corrected for media absorbance, then normalized to initial density readings to determine percent net growth. Percent net growth is calculated as (A490+drug−A490 initial)/(A490—drug—A490 initial). Graphs of percent net growth as a function of compound concentration are used to calculate concentrations resulting in 50% growth inhibition (IC50). MTS mixture is prepared fresh on day of addition to cell plates at a ratio of 10 μL of a 0.92 mg/mL solution of phenazine methosulfate (PMS) to 190 μL of a 2 mg/mL solution of MTS (3-(4,5-dimethylthiazol-2-yl)-5-(3-carboxymethoxyphenyl)-2-(4-sulfophenyl)-2H-tetrazolium, inner salt). PMS and MTS solutions are prepared in buffered saline containing 0.2 g/L KCl, 8.0 g/L NaCl, 0.2 g/L KH2PO4, 1.15 g/L Na2HPO4, 133 mg/L CaCl2.2H2O, 100 mg/L MgCl2.6H2O, (pH=7.35) and stored as foil-wrapped aliquots at −20° C. Test compounds are prepared as stock solutions in DMSO. Test compound dilutions are made in 2% DMSO/cell maintenance media and diluted into assay plates to give 0.1% DMSO final in all wells.

Regarding `C=C/C=C\[C@H](C)[C@H](OC(N)=O)[C@@H](C)[C@H](O)[C@@H](C)C/C(C)=C\[C@H](C)[C@@H](O)[C@@H](C)/C=C\[C@@H](O)C[C@@H]1OC(=O)[C@H](C)[C@@H](O)[C@H]1C` [discodermolide, (+)-Discodermolide], the IC50 (Homo sapiens, 72 h, read-out: 72 hour IC50, PTX-22 cells, single value given) was found to be 30 nM; the IC50 (Homo sapiens, 72 h, read-out: IC50 cell proliferation, PTX-22 cells, 72 h exposure, two independent experiments) stood at 23 nM; the IC50 (read-out: IC50 cell proliferation, PTX-22 cells, 72 h exposure, two independent experiments) stood at 37 nM.
Turning to `CC(=O)O[C@H]1C(=O)[C@@]2(C)[C@H]([C@H](OC(=O)c3ccccc3)[C@]3(O)C[C@H](OC(=O)[C@H](O)[C@@H](NC(=O)c4ccccc4)c4ccccc4)C(C)=C1C3(C)C)[C@]1(OC(C)=O)CO[C@@H]1C[C@@H]2O` [paclitaxel, reference compound], the IC50 (Homo sapiens, 72 h, PTX-22 cells, single value given, read-out: 72 hour IC50) amounted to 80 nM. For the same molecule, the “fold less sensitive, PTX-22 versus 1A9” value (from the 72 hour IC50 values) was 13 fold.

The record behind these values is patent publication US6774143B1, “Method for treating cells resistant to antineoplastic agents” (Novartis AG, priority 2003, dated 2004).
